# Measurements reported in patent US12390477B2, “Ganaxolone for use in treating tuberous sclerosis complex and seizure disorders” (Immedica Pharma US Inc., priority 2021, dated 2025).
# What was measured:
# CYP2C19 = CYP2C19 (Homo sapiens, UniProt P33261); conditions: cited from earlier work
# TSC-associated seizures = test: Phase 2 open-label trial of adjunctive ganaxolone in TSC-related epilepsy (Part A): seizure frequency; assay type: in vivo, human
# Method: A Phase 2 open-label 12 week trial of adjunctive ganavolone treatment (Part A) in tuberous sclerosis complex-related epilepsy followed by long-term treatment (Part B) was conducted. This was a multicenter study conducted at 7 sites in the United States.
# The primary objectives were to assess preliminary safety and efficacy of ganavolone (GNX) as adjunctive therapy for the treatment of primary seizure types in patients with genetically- or clinically-confirmed TSC-related epilepsy through the end of the 12 week treatment period. The primary seizure types (focal motor seizures without impairment of consciousness or awareness, focal seizures with impairment of consciousness or awareness, focal seizures evolving to bilateral, tonic-clonic convulsive seizures, and generalized motor seizures including tonic-clonic, bilateral tonic, bilateral clonic, or atonic/drop seizures) are identified to be the most common, easily identifiable/countable by a parent/caregiver/legally authorized representative (LAR), and most consequential to the patient's quality of life.
# (§1) This was an open label (OL) proof of concept study of adjunctive GNX treatment in patients with a confirmed clinical diagnosis of TSC and/or a mutation in either the TSC1 or TSC2 gene. The trial consisted of two parts: Part A consisted of a 4-week baseline period followed by a 12-week treatment period (4-week titration and 8-week maintenance). For patients not continuing in the OLE period (Part B), a 2-week taper period followed by a 2-week safety period followed. The main difference between Part A and Part B is the length of treatment, less frequent assessments, and the ability to alter drug doses (both GNX and other antiepileptic drug [AED] treatments which includes initiating and stopping other medications) based on investigator evaluation of the patient's clinical course during Part B. Patients with a seizure frequency reduction rate of ≥35% during the 12-week treatment period in Part A compared to baseline were eligible to continue into Part B (“OLE eligible”).
# (§2) After meeting all eligibility criteria, approximately 30 patients aged 2 to 65 years (inclusive) with TSC-related epilepsy were enrolled to receive GNX for a total of 12 weeks (4 week titration, 8 week maintenance) in addition to their standard anti-seizure medication(s) (ASMs). Patients were titrated to 63 mg/kg/day (maximum 1800 mg/day) over 4 weeks, and then maintained at that dose for another 8 weeks. Patients who were not able to tolerate 63 mg/kg/day (or maximum 1800 mg/day) were eligible to be maintained on a lower dose after discussion with the medical monitor. A minimum dose of 33 mg/kg/day or 900 mg/day was generally required during the maintenance period.
# Patients were required to complete a daily diary to determine GNX's effect on seizures. Days without seizures should also have been noted. Additional clinician and caregiver administered instruments were used to assess the efficacy of GNX in TSC and included: Caregiver Global Impression of Change (CGI-C)—Target Behavior and Clinical Global Impression—Improvement (CGI-I) caregiver and CGI-I clinician.
# Ganaxolone was administered in increments of 15 mg/kg/day up to 63 mg/kg/day (maximum 1800 mg/day) given as an oral suspension with food. Patients weighing ≤28 kg were dosed on an mg/kg basis. Patients weighing >28 kg were dosed on a fixed regimen in increments of 450 mg/day up to 1800 mg/day.
# Seizures: All seizure types and number of seizures were to be recorded daily in a diary. Days in which no seizures occur were also to be noted.
# Primary Efficacy Endpoint: The primary efficacy endpoint was the percent change in 28-day primary seizure frequency through the end of the 12-week treatment period (4-week titration and 8-week maintenance) relative to the 4-week baseline. […]
# [1] = Phase 2 open-label TSC trial (Part A): safety and tolerability, adverse events; assay type: in vivo, human
# Excerpt: as §1, §2
# (§3) Pharmacokinetics, Safety and tolerability were assessed.
# If the next dose was still not tolerated, the patient could drop back to the next lower dose step. A minimum dose of 33 mg/kg/day or 900 mg/day was generally required following the escalation period, during the maintenance period.
# [2] = Phase 2 open-label TSC trial (Part A): ganaxolone plasma/serum concentration; assay type: in vivo, human
# Method: as §3
# [3] = system: major motor seizures in CDD; test: Marigold phase 3 trial of ganaxolone in CDKL5 deficiency disorder: seizure frequency; assay type: in vivo, human
# Excerpt: (§4) The Marigold Study was a phase 3 clinical trial of ganaxolone for the treatment of CDD. The trial met primary endpoint-median 28-day major motor seizure frequency reduction of 32.2 percent compared to 4.9 percent for placebo. […] The most frequent adverse event was somnolence.
# (See, FIG. 10.) These effects are unlikely secondary to age or weight, which were balanced between the two groups.
# [4] = Marigold phase 3 trial of ganaxolone in CDD: safety and tolerability; assay type: in vivo, human; conditions: CDD patients
# Excerpt: as §4
# [5] = Human pharmacokinetic studies of ganaxolone and CBD; assay type: in vivo
# Excerpt: Without wishing to be bound by any particular theory, the inventors believe that the results of the clinical study can be explained by a previously unknown and unexpected drug interaction between ganaxolone and CBD. This is unexpected because ganaxolone is metabolized by CYP3A4/5. Landmark et al. Epilepsia 2021 62:857-873. […] Accordingly, it was unexpected that ganaxolone plasma concentrations, tolerability and efficacy would be affected by concomitant CBD. […] Thus, without wishing to be bound by any particular theory or mechanism, the unexpected drug-drug interaction could be a pharmacodynamic interaction.
# CYP3A4/5 = conditions: cited from earlier work
# [6] = system: UGT1A9, UGT2B7, CYP1A2, CYP2B6, CYP2C8, CYP2C9 or CYP2C19; conditions: cited from earlier work
# Sequence of CYP2C19 (P33261 whole entry): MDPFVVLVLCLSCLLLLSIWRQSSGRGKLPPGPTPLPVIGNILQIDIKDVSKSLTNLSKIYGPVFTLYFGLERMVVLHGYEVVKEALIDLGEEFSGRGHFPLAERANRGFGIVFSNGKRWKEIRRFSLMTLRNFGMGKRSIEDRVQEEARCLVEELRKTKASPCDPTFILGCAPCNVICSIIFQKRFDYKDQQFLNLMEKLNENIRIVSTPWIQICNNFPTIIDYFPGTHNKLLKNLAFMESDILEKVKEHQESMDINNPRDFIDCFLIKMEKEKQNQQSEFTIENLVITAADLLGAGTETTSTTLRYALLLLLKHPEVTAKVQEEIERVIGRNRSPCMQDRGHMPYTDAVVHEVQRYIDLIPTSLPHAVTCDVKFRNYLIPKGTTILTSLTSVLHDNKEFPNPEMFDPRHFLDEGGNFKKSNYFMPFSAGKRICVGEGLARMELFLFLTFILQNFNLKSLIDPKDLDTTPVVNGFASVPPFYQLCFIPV
compound,measurement,setting,value
"C=C(C)[C@@H]1CCC(C)=C[C@H]1c1c(O)cc(CCCCC)cc1O [EPIDIOLEX, cannabidiol]",increase in plasma concentration of N-desmethylclobazam,CYP2C19; coadministration with clobazam (a CYP2C19 substrate),3 fold
same,effect on clobazam levels,CYP2C19; coadministration with clobazam,no effect
"CC(=O)[C@H]1CC[C@H]2[C@@H]3CC[C@H]4C[C@](C)(O)CC[C@]4(C)[C@H]3CC[C@]12C [ganaxolone, 3α-hydroxy-3β-methyl-5α-pregnan-20-one]",median reduction in TSC-associated seizure frequency,"TSC-associated seizures; 23 enrolled patients, 12-week treatment vs 4-week baseline",16.6%
same,patients achieving ≥50% reduction in TSC-associated seizure frequency,TSC-associated seizures; all enrolled patients (n=23),30.4%
same,efficacy in patients receiving concomitant EPIDIOLEX (CBD) at 10 mg/kg/day or less,TSC-associated seizures; concomitant CBD 10 mg/kg/day or less,robust efficacy
same,suppression of seizure (efficacy) with concomitant CBD above 10 mg/kg vs no CBD or CBD at or below 10 mg/kg,TSC-associated seizures; concomitant CBD above 10 mg/kg,lower suppression of seizure
same,fraction of patients with robust reduction in TSC-associated seizures,TSC-associated seizures; including those on concomitant cannabidiol and everolimus,⅓
same,median percent reduction in focal seizure frequencies,TSC-associated seizures; n=19,25.2%
same,patients achieving ≥50% reduction in TSC-associated seizure frequency,TSC-associated seizures; patients that received concomitant cannabidiol (n=12),25%
same,patients achieving ≥50% reduction in TSC-associated seizure frequency,TSC-associated seizures; patients that received concomitant everolimus (n=11),36.4%
same,"median percent reduction in TSC-associated seizures, no concomitant cannabidiol vs concomitant cannabidiol",TSC-associated seizures; patients without concomitant cannabidiol (n=11) compared with patients on cannabidiol,greater median percent reduction
same,"patients that discontinued Part A, number",[1]; 23 enrolled,6 patients
same,"patients that discontinued Part A, percent",[1]; 23 enrolled,26.1%
same,"fatigue, number of patients reporting",[1]; 23 enrolled TSC patients,3 patients
same,"fatigue, percent of patients reporting",[1]; 23 enrolled TSC patients,13.0%
same,overall tolerability,[1]; 23 enrolled TSC patients,generally well-tolerated
same,patients with seizure assessed by the principal investigator as treatment related,[1]; 23 enrolled TSC patients,One
same,"sedation, number of patients reporting",[1]; 23 enrolled TSC patients,3 patients
same,"sedation, percent of patients reporting",[1]; 23 enrolled TSC patients,13.0%
same,"somnolence, number of patients reporting",[1]; 23 enrolled TSC patients,10 patients
same,"somnolence, percent of patients reporting",[1]; 23 enrolled TSC patients,43.5%
same,"somnolence-related adverse events (somnolence, sedation, fatigue and lethargy), number of patients",[1]; 23 enrolled TSC patients,17 patients
same,ganaxolone tolerability issues with concomitant CBD above 10 mg/kg vs no CBD or CBD at or below 10 mg/kg,[1]; concomitant CBD above 10 mg/kg,greater ganaxolone tolerability issues
same,patients on concomitant cannabidiol experiencing somnolence-related adverse events,[1]; concomitant cannabidiol (n=12),All patients
same,patients that discontinued Part A because of an adverse event,[1]; of the patients that discontinued,4
same,mean ganaxolone serum concentration in patients with somnolence-related adverse events relative to patients without,[2]; FIG. 3,higher
same,mean ganaxolone plasma concentration with concomitant cannabidiol vs without,[2]; FIG. 4,higher
same,ganaxolone plasma concentration in relation to concomitant cannabidiol dose,"[2]; FIG. 5, n=11",higher doses of cannabidiol were associated with higher plasma concentrations of ganaxolone
same,median 28-day major motor seizure frequency reduction,"[3]; CDD patients, ganaxolone arm",32.2%
same,efficacy in patients who experienced somnolence-related adverse events vs those who did not,"[3]; ganaxolone treatment group (N=49), FIG. 10",reduced efficacy
same,discontinuation rate in the active treatment arm,[4],less than 5%
same,most frequent adverse event,[4],somnolence
same,overall tolerability,[4],generally well tolerated
same,pharmacokinetic drug-drug interaction of ganaxolone and CBD,[5],did not provide evidence of a pharmacokinetic drug-drug interaction
same,metabolizing enzyme,CYP3A4/5,CYP3A4/5
same,metabolism by enzymes implicated in CBD interactions with other drugs,[6],not significantly metabolized
